According to PubChem BioAssay AID602287 (National Center for Advancing Translational Sciences (NCATS), 2012):
Values after ≈ are worked out from the molar mass of the structure shown. Results filed as inconclusive are left out.

The compounds below were run on PBS pH 7.4 solubility, LC-UV/MS, 1 h shake (assay: qHTS Assay for Agonists of the Relaxin Receptor RXFP1: PBS Solubility). Details: hits give high values.
Source text: The relaxin hormone is involved in the variety of biological functions in normal tissues and diseases. The role of relaxin is well-established in female reproduction and parturition, mammary gland and endometrial development, maintenance of myometrial quiescence during pregnancy. Relaxin signaling through its G protein-coupled receptor (GPCR) RXFP1 results in ECM remodeling through regulation of collagen deposition, cell invasiveness, proliferation and overall tissue homeostasis. […] Recombinant human relaxin (rhRlx) is currently being tested in clinical trials as a protective agent in congestive heart failure, in treating severe preeclampsia, and as an anti-fibrotic agent in systemic sclerosis. The probe and analogs were tested to assess their PBS solubility in this assay. NIH Chemical Genomics Center [NCGC] NIH Molecular Libraries Probe Production Centers Network [MLPCN] MLPCN Grant: R03 MH085705 Assay Submitter (PI): Alexander Agoulnik
1. 8ul of reference and test compound stock solution were added to 392ul 100mM phosphate buffer (pH 7.4) 2. Sample tubes were shaken for 1 hr (1000 rpm) at room temperature 3. Samples were centrifuged (10 min at 12000 rpm) to precipitate un-dissolved particles 4. Supernatants were transferred to new tubes 5. Concentration of the supernatant was determined by LC-UV or LC-MS/MS

SMILES	solubility [µM]
COc1ccccc1C(=O)Nc1ccccc1C(=O)Nc1cccc(SC(F)(F)F)c1	2.9 (≈ 1.29 µg/mL)
CCOc1ccccc1C(=O)Nc1ccccc1C(=O)Nc1cccc(C(F)(F)F)c1	1.7 (≈ 0.728 µg/mL)

Further lines, results first:

solubility [µM]	SMILES
1.1 (≈ 0.542 µg/mL)	CCOc1ccccc1C(=O)Nc1ccccc1C(=O)Nc1cccc(S(=O)(=O)C(F)(F)F)c1
7 (≈ 3.55 µg/mL)	CC(C)Oc1ccccc1C(=O)Nc1ccccc1C(=O)Nc1cccc(S(=O)(=O)C(F)(F)F)c1
5.3 (≈ 2.76 µg/mL)	CCCCOc1ccccc1C(=O)Nc1ccccc1C(=O)Nc1cccc(S(=O)(=O)C(F)(F)F)c1
